Results published in PMC6457909 (Science (New York, N.Y.), 2019).

Tests used:
H5 HA compared to H1 HA = format: binding, influenza A virus
[1] = test system: H1N1 A/Brisbane/59/2007 HA; format: biochemical, influenza A virus; settings: pH 5.25
[2] = test system: influenza A group 1 viruses; format: cell-based, influenza A virus
[3] = test system: H1N1 A/California/07/2009 (H1/Cal); format: cell-based, influenza A virus; settings: read-out: virus neutralization EC50 for H1/Cal
[4] = Metabolic stability in liver microsomes; settings: human liver microsomes, versus earlier compounds
[5] = test system: H1N1 A/New Caledonia/20/1999 (H1/NCa); format: cell-based, influenza A virus; settings: read-out: virus neutralization EC50 for H1/NCa
[6] = test system: H1N1 A/PR/8/1934 virus in human bronchial epithelial cells (HBEC); assay: Viral neutralization assay in HBEC cultures; format: cell-based; settings: 96 hours post-infection
MDCK cells = assay: Cell toxicity assay
H1N1 A/PR/8/1934 virus [7] = assay: Mouse influenza challenge, lethal; format: in vivo; settings: for survival at day 21: lethal challenge 25x MLD
H1N1 A/PR/8/1934 virus [8] = assay: Mouse influenza challenge, sublethal; format: in vivo; settings: for survival: sublethal challenge (MLD90)
In vivo pharmacokinetics = assay: In vivo pharmacokinetics; design: species or system mouse; settings: mice
Kinetic solubility = settings: versus earlier compounds
[9] = Metabolic stability in liver microsomes; settings: murine liver microsomes, versus earlier compounds
[10] = test system: panel of pharmacologically relevant receptors, ion channels, and transporters; assay: In vitro selectivity profiling; format: binding; settings: 10 µM

## CC(=O)Nc1ccc2oc(-c3ccnc(C(=O)N4CCN([C@H](c5ccccc5)c5nnn(C)n5)CC4)c3)nc2c1 [JNJ4796]
H5 HA compared to H1 HA
  decrease of binding affinity to H5 HA compared to H1 HA: ~ 25 fold
[1]
  inhibition of low pH-induced HA conformational change: dose-dependently prevents pH-induced transition of HA to the post-fusion conformation
[2]
  breadth of virus neutralization: heterosubtypic group 1 HA binding and virus neutralization breadth
[3]
  EC50: 0.066 µM
[4]
  intrinsic clearance (in words): significantly reduced
[5]
  EC50: 0.038 µM
[6]
  viral titers: dramatically reduced the viral titers
MDCK cells
  cytotoxicity: without cytotoxicity
H1N1 A/PR/8/1934 virus [7]; 10 mg/kg twice daily oral
  survival at day 21: 100%
H1N1 A/PR/8/1934 virus [7]; 50 mg/kg twice daily oral
  survival at day 21: 100%
H1N1 A/PR/8/1934 virus [7]; lethal challenge, 50 and 10 mg/kg
  morbidity (animal weight loss): only partly alleviated morbidity
H1N1 A/PR/8/1934 virus [8]; 5 mg/kg twice daily oral
  survival: 100%
H1N1 A/PR/8/1934 virus [8]; 15 mg/kg twice daily oral
  survival: 100%
H1N1 A/PR/8/1934 virus [8]; sublethal challenge, 15 and 5 mg/kg twice daily
  weight loss: only moderate weight loss effects
In vivo pharmacokinetics; after oral administration
  half-life (t½): 2.4 h
In vivo pharmacokinetics; oral
  overall bioavailability: 30.0%
In vivo pharmacokinetics; oral administration at 10 mg/kg
  plasma concentration (Cmax): 1.152 µg/mL
Kinetic solubility
  aqueous solubility (in words): increased
[9]
  intrinsic clearance (in words): significantly reduced
[10]
  inhibition of off-targets: does not substantially inhibit any of these potential off-targets
